The values below come from ChEMBL document CHEMBL3886912, “Imidazo[4,5-c]quinolin-2-one compounds and their use in treating Cancer” (2016).

Experiment [1] concerns the target Serine/threonine-protein kinase ATR (Homo sapiens, UniProt Q13535). The experiment can be described thus: Cellular Assay: Assay b) HT29 cells (ECACC #85061109) were seeded into 384 well assay plates (Costar #3712) at a density of 6000 cells/well in 40 μl EMEM medium containing 1% L glutamine and 10% FBS and allowed to adhere overnight. The following morning compound of Formula (I) in 100% DMSO was added to assay plates by acoustic dispensing. After 1 h incubation at 37° C. and 5% CO2, 40 nl of 3 mM 4NQO in 100% DMSO was added to all wells by acoustic dispensing, except minimum control wells which were left untreated with 4NQO to generate a null response control. Plates were returned to the incubator for a further 1 h. Then cells were fixed by adding 20 μl of 3.7% formaldehyde in PBS solution and incubating for 20 mins at r.t. Then 20 μl of 0.1% Triton X100 in PBS was added and incubated for 10 minutes at r.t., to permeabalise cells. Then the plates were washed once with 50 μl/well PBS, using a Biotek EL405 plate washer. Phospho-Chk1 Ser 345 antibody (Cell Signalling Technology #2348) was diluted 150 fold in PBS containing 0.05% polysorbate/Tween and 15 μl was added to each well and incubated over night at r.t. The next morning plates were washed three times with 50 μl/well PBS, using a Biotek EL405 plate washer, and then 20 μl of secondary Ab solution, containing 500 fold diluted Alexa Fluor 488 Goat anti-rabbit IgG (Molecular Probes #A-11008) and 0.002 mg/ml Hoeschst dye (Molecular Probes #H-3570), in PBST, was added. After 2 h incubation at r.t., the plates were washed three times with 50 μl/well PBS, using a Biotek EL405 plate washer, and plates were then sealed with black plate seals until read. Plates were read using an ArrayScan VTI instrument, using an XF53 filter with 10× objective. A two laser set up was used to analyse nuclear staining with Hoeschst (405 nm) and secondary antibody staining of pChk1 (488 nm). It is filed as cell-based, HT-29.

For experiment [2], the target named is Serine-protein kinase ATM (Homo sapiens, UniProt Q13315). The experiment can be described thus: Cellular Assay: Assay a) HT29 cells (ECACC #85061109) were seeded into 384 well assay plates (Costar #3712) at a density of 3500 cells/well in 40 μl EMEM medium containing 1% L glutamine and 10% FBS and allowed to adhere overnight. The following morning compounds of Formula (I) in 100% DMSO were added to assay plates by acoustic dispensing. After 1 h incubation at 37° C. and 5% CO2 plates (up to …. It counts as cell-based, HT-29.
Sequence of Serine-protein kinase ATM (Q13315 whole entry): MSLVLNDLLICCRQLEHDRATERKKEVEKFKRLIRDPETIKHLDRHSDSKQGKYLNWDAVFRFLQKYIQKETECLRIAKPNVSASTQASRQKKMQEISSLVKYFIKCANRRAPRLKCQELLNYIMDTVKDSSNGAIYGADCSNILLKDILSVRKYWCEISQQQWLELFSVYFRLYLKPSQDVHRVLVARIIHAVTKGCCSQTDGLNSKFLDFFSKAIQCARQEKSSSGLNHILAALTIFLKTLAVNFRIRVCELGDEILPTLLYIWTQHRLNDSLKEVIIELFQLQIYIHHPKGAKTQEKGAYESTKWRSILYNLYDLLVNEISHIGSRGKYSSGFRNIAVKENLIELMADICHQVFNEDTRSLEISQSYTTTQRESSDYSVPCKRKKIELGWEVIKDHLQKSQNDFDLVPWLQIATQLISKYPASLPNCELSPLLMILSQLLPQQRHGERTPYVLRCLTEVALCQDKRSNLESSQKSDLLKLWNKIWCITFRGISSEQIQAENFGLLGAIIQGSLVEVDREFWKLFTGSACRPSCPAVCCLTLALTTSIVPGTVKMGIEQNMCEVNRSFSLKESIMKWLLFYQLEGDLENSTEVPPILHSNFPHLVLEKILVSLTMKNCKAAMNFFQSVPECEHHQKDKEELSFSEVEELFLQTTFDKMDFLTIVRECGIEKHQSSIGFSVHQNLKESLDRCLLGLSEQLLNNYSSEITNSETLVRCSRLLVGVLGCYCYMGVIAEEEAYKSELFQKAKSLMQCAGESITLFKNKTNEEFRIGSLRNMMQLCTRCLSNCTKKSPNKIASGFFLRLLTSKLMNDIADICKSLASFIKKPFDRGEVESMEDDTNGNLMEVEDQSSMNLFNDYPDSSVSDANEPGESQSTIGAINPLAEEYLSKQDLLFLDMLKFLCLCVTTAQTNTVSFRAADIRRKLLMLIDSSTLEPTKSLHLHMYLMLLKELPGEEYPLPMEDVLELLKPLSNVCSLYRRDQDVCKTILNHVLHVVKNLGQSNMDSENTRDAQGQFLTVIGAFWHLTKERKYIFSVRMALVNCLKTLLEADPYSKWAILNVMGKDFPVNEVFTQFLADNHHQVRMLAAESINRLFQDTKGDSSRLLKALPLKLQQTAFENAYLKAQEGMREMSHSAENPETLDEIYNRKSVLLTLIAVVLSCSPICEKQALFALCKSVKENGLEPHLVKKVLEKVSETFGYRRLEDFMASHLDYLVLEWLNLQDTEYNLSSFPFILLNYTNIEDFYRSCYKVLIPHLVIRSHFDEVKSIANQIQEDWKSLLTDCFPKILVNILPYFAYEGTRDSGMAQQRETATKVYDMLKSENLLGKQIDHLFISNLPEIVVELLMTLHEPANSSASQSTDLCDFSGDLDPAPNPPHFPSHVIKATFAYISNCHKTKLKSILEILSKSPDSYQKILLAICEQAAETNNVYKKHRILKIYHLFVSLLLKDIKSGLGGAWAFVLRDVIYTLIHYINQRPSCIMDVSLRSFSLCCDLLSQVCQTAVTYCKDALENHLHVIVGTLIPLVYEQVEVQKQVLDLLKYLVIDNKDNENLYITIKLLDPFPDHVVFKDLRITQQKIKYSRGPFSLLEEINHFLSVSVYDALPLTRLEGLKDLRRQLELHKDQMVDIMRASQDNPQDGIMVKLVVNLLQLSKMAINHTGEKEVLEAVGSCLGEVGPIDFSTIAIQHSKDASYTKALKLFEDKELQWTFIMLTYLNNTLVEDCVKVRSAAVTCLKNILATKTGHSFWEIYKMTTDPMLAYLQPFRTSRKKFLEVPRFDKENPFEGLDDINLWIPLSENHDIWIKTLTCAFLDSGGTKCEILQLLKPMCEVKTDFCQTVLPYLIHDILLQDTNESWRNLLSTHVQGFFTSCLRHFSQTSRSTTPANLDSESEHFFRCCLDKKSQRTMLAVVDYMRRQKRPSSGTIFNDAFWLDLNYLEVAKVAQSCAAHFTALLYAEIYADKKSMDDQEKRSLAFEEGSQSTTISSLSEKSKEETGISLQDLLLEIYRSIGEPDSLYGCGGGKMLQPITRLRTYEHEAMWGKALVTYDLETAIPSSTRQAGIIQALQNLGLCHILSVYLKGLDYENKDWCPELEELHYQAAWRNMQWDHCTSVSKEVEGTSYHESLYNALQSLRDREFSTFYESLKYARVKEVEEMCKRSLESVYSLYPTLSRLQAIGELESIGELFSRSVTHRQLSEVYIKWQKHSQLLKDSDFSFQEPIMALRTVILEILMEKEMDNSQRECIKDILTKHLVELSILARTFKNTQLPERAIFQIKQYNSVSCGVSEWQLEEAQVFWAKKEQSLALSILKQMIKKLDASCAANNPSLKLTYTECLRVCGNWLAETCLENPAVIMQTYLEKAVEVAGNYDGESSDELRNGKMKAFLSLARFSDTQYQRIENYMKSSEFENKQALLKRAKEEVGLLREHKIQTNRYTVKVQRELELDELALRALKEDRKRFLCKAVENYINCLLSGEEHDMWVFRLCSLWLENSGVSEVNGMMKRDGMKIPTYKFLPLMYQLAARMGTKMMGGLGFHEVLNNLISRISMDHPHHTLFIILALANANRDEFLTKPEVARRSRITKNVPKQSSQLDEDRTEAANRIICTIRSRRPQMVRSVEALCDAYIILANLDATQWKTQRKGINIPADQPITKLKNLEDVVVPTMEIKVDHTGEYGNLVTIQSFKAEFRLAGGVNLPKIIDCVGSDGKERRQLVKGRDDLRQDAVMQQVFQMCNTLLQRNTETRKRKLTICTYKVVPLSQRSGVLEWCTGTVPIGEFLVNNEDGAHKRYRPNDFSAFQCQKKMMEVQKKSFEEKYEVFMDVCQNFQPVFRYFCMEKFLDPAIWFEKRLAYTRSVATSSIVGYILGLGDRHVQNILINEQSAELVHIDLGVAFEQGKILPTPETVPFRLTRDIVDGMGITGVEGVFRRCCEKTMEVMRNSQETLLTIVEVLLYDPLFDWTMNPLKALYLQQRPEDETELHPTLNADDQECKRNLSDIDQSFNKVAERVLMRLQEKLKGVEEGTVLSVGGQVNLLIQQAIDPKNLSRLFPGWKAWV

For `CN(C)CCCOc1ccc(-c2ccc3ncc4c(c3c2)n([C@H]2C[C@@H](O)C2)c(=O)n4C)cn1`, the figures for the half-maximal inhibitory concentration (IC50) in experiment [1] and in experiment [2] were > 30000 nM and 0.24 nM, respectively.
In the case of `CN(C)CCCOc1ccc(-c2cc3c(cc2F)ncc2c3n([C@H]3CCCOC3)c(=O)n2C)cn1`, the IC50 in experiment [1] is > 29600 nM; in experiment [2] it was 1.14 nM.
Regarding `CN(C)CCCOc1ccc(-c2ccc3ncc4c(c3c2)n(C2COC2)c(=O)n4C)cn1`, the IC50 in experiment [1] is > 30000 nM; in experiment [2], 1.46 nM.
On to `CN(C)CCCOc1ccc(-c2cc3c(cc2F)ncc2c3n([C@@H]3CCCOC3)c(=O)n2C)cn1`, for which the figures for the IC50 in experiment [1] and in experiment [2] were > 30000 nM and 1 nM, respectively.

In general, IC50 refers to the concentration at which inhibition is half-maximal. Higher therefore signals weaker potency.
